In the supplement of paper PMC11368000:

How the values were obtained:
Details in all cases: exposure time: 90 min
1118 [1] = donor line of iPSC-derived cardiomyocytes; experiment: POD (EC10) for decrease in total cell number (cytotoxicity) vs vehicle; higher = less potent (higher point of departure)
Outline: (§1)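 Donor-specific cytotoxicity points of departure were derived from hierarchical Bayesian Hill fits to vehicle-normalised nuclear counts. The benchmark for these fits was a 10% decrease. The cells were human iPSC-derived cardiomyocytes from 16 donors, cultured 14 days in 384-well plates and exposed for 90 min at 37 °C to 0.1, 1, 10 and 100 µM (final, 0.5% DMSO). Following a Ca2+ flux read, they were stained for 15 min with Hoechst 33342 (2.2 µg/mL) and MitoTracker Orange, imaged at 10× on an ImageXpress Micro Confocal, and their nuclei counted per field in MetaXpress.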

1309 [2] = donor line of iPSC-derived cardiomyocytes; experiment: as above
Outline: as §1

1516 = donor line of iPSC-derived cardiomyocytes; experiment: as above
Outline: as §1

1518 = donor line of iPSC-derived cardiomyocytes; experiment: as above
Outline: as §1

1531 = donor line of iPSC-derived cardiomyocytes; experiment: as above
Outline: as §1

20032 [3] = donor line of iPSC-derived cardiomyocytes; experiment: as above
Outline: as §1

30171 [4] = donor line of iPSC-derived cardiomyocytes; experiment: as above
Outline: as §1

1083 = donor line of iPSC-derived cardiomyocytes; experiment: POD (EC05) for increase in Ca2+ transient decay-to-rise ratio (QT prolongation) vs vehicle; higher = less potent (higher point of departure)
Outline: (§2)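 For each of 16 donors, iPSC-derived human cardiomyocytes were cultured 14 days in gelatin-coated 384-well plates and given a fluorescent Ca2+ dye for 2 h. Exposure lasted 90 min at 37 °C at 0.1, 1, 10 and 100 µM final, with 0.5% DMSO, and a FLIPR Tetra captured Ca2+ flux at 8 frames/s over 100 s both before and afterwards. Points of departure per donor were estimated by hierarchical Bayesian Hill fits to vehicle-normalised beat frequency, decay-to-rise ratio or peak frequency, using thresholds of 5% change, or 95% loss for peak frequency.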

1118 [5] = experiment: as above
Outline: as §2

11235 = donor line of iPSC-derived cardiomyocytes; experiment: as above
Outline: as §2

1309 [6] = experiment: as above
Outline: as §2

1368 = donor line of iPSC-derived cardiomyocytes; experiment: as above
Outline: as §2

1392 = donor line of iPSC-derived cardiomyocytes; experiment: as above
Outline: as §2

1434 = donor line of iPSC-derived cardiomyocytes; experiment: as above
Outline: as §2

1535 = donor line of iPSC-derived cardiomyocytes; experiment: as above
Outline: as §2

1565 = donor line of iPSC-derived cardiomyocytes; experiment: as above
Outline: as §2

20032 [7] = experiment: as above
Outline: as §2

20084 = donor line of iPSC-derived cardiomyocytes; experiment: as above
Outline: as §2

30145 = donor line of iPSC-derived cardiomyocytes; experiment: as above
Outline: as §2

30171 [8] = experiment: as above
Outline: as §2

SMILES	POD vs vehicle 1118 [1]	POD vs vehicle 1309 [2]	POD vs vehicle 1516	POD vs vehicle 1518	POD vs vehicle 1531	POD vs vehicle 20032 [3]	POD vs vehicle 30171 [4]	POD vs vehicle 1083	POD vs vehicle 1118 [5]	POD vs vehicle 11235	POD vs vehicle 1309 [6]	POD vs vehicle 1368	POD vs vehicle 1392	POD vs vehicle 1434	POD vs vehicle 1535	POD vs vehicle 1565	POD vs vehicle 20032 [7]	POD vs vehicle 20084	POD vs vehicle 30145	POD vs vehicle 30171 [8]
O=S(=O)(O)C(F)(F)C(F)(F)C(F)(F)C(F)(F)C(F)(F)C(F)(F)F [Perfluorohexanesulfonic_acid]	> 100 µM	> 100 µM	> 100 µM	> 100 µM	> 100 µM	> 100 µM	> 100 µM	> 100 µM	> 100 µM	> 100 µM	> 100 µM	> 100 µM	> 100 µM	> 100 µM	> 100 µM	> 100 µM	> 100 µM	> 100 µM	> 100 µM	21.2 µM
NC(O)(C(F)(F)F)C(F)(F)F [2-Aminohexafluoropropan-2-ol]	> 100 µM	> 100 µM	> 100 µM	> 100 µM	> 100 µM	> 100 µM	> 100 µM	> 100 µM	> 100 µM	> 100 µM	> 100 µM	> 100 µM	> 100 µM	> 100 µM	> 100 µM	> 100 µM	> 100 µM	> 100 µM	> 100 µM	> 100 µM
O=C(O)C(F)(F)C(F)(F)C(F)(F)C(F)(F)C(F)(F)C(F)(F)C(F)(F)C(F)(F)C(F)(F)C(F)(F)F [Perfluoroundecanoic_acid]	> 100 µM	> 100 µM	> 100 µM	> 100 µM	> 100 µM	> 100 µM	> 100 µM	> 100 µM	> 100 µM	> 100 µM	> 100 µM	> 100 µM	> 100 µM	> 100 µM	> 100 µM	> 100 µM	> 100 µM	> 100 µM	> 100 µM	4.57 µM
O=C(O)C(F)(F)C(F)(F)F [Perfluoropropanoic_acid]	> 100 µM	> 100 µM	> 100 µM	> 100 µM	> 100 µM	> 100 µM	> 100 µM	> 100 µM	> 100 µM	> 100 µM	> 100 µM	> 100 µM	> 100 µM	> 100 µM	> 100 µM	> 100 µM	> 100 µM	> 100 µM	> 100 µM	> 100 µM
O=C(O)CCC(F)(F)C(F)(F)C(F)(F)C(F)(F)C(F)(F)C(F)(F)C(F)(F)F [3-Perfluoroheptylpropanoic_acid]	> 100 µM	> 100 µM	> 100 µM	> 100 µM	> 100 µM	> 100 µM	> 100 µM	> 100 µM	> 100 µM	> 100 µM	> 100 µM	> 100 µM	> 100 µM	> 100 µM	> 100 µM	> 100 µM	33.8 µM	36.7 µM	> 100 µM	> 100 µM
NC(=O)C(F)(F)C(F)(F)C(F)(F)C(F)(F)F [Nonafluoropentanamide]	> 100 µM	> 100 µM	> 100 µM	> 100 µM	> 100 µM	> 100 µM	> 100 µM	> 100 µM	> 100 µM	> 100 µM	> 100 µM	> 100 µM	> 100 µM	0.357 µM	> 100 µM	> 100 µM	0.52 µM	> 100 µM	> 100 µM	> 100 µM
O=S(=O)(OCC(F)(F)F)C(F)(F)C(F)(F)C(F)(F)C(F)(F)F [2,2,2-Trifluoroethyl_perfluorobutanesulfonate]	> 100 µM	> 100 µM	> 100 µM	> 100 µM	> 100 µM	> 100 µM	> 100 µM	> 100 µM	> 100 µM	> 100 µM	> 100 µM	> 100 µM	> 100 µM	> 100 µM	> 100 µM	> 100 µM	> 100 µM	> 100 µM	> 100 µM	> 100 µM
O=C([O-])C(F)(F)C(F)(F)C(F)(F)C(F)(F)C(F)(F)C(F)(F)C(F)(F)F.[NH4+] [Ammonium_perfluorooctanoate]	> 100 µM	> 100 µM	> 100 µM	> 100 µM	> 100 µM	> 100 µM	> 100 µM	> 100 µM	> 100 µM	> 100 µM	> 100 µM	> 100 µM	> 100 µM	> 100 µM	> 100 µM	> 100 µM	> 100 µM	> 100 µM	> 100 µM	> 100 µM
